Test results as given in paper PMC11601558, “SLC6A19 inhibition facilitates urinary neutral amino acid excretion and lowers plasma phenylalanine” (JCI Insight, 2024).
Several values for one entry are separate records, joined by “and”; a condition that tells them apart may be missing. Identical values can stand only once. Like-named read-outs stand apart in the source and are kept apart here. One block for each compound: values may come before it.

Target: T1, human SLC6A19 (Homo sapiens, UniProt Q695T7)
T1 construct: expressed in transfected cells
T1 sequence (Q695T7 1-634): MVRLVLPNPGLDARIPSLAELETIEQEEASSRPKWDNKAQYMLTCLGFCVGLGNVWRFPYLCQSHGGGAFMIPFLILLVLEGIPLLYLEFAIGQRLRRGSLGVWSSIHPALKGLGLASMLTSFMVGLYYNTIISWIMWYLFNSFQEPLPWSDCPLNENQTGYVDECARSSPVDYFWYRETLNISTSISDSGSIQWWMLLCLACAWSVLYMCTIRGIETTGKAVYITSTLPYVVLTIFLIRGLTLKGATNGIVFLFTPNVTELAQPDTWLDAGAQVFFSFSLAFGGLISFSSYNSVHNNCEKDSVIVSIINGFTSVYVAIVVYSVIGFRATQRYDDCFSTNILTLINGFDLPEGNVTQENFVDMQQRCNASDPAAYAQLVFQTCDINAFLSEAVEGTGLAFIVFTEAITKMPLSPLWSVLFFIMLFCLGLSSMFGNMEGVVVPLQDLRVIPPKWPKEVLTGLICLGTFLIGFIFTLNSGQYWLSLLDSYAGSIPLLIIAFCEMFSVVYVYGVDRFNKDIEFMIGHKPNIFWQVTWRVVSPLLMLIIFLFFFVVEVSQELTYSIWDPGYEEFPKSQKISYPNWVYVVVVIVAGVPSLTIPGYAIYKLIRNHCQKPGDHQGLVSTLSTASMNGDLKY
T1 sequence (Q9HBJ8 15-222 partner): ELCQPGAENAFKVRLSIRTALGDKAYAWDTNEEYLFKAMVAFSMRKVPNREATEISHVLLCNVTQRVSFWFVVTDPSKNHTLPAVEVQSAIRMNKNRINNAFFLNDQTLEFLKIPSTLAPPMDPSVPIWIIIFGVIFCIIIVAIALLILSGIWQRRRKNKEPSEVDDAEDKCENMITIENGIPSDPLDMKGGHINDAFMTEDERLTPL
Assay: Isoleucine transport assay, Flp-In T-REx 293 cells coexpressing human SLC6A19 and TMEM27
Type: cell-based
Conditions: for isoleucine transport, Human (Fig 1f curve point) / isoleucine transport, Human (Fig 1c curve point): technical replicates
Description: Flp-In T-REx 293 cells (Thermo Fisher Scientific) were engineered to coexpress C-terminally V5-tagged human or mouse SLC6A19 under the control of a tetracycline-inducible promoter and human or mouse myc-DDK-tagged TMEM27 under the control of a constitutively active promoter. Cells were maintained in DMEM/F12 medium supplemented with 10% FBS, 100 units/mL penicillin, 100 μg/mL streptomycin, 200 μg/mL hygromycin, 10 μg/mL blasticidin, and 300 μg/mL geneticin (all from Thermo Fisher Scientific) at 37°C and 5% CO2.
Flp-In T-REx 293 cells stably coexpressing human or mouse SLC6A19 and TMEM27 were plated in 384-well plates in the presence of 1 μg/mL tetracyclin (Sigma-Aldrich) to induce the expression of SLC6A19. After 24 hours, cells were washed with live cell imaging solution (LCIS, Thermo Fisher Scientific) before JN-170 or JNT-517 were added to cells in 10-point concentration response curves in 0.5% DMSO in Krebs buffer (140 mM NaCl, 4.7 mM KCl, 2.5 mM CaCl2, 1.2 mM MgCl2, 11 mM HEPES, 10 mM glucose, pH 7.4). Cells were incubated with compounds for 1 hour at room temperature before 1 mM ^13C6,^15N1-labeled L-isoleucine (Cambridge Isotope Laboratories) was added as a transport substrate. After 20 minutes incubation at room temperature, cells were washed and lysed in H2O with 15 μM internal standard D-Leucine-D10 (CDN Isotopes) for 1–2 hours. A standard curve of ^13C6,^15N1-L-isoleucine was added to each plate following cell lysis. Plates were centrifuged at 3,700g to remove cell debris, and supernatant was diluted in 2 steps to a final 1:10 dilution in acetonitrile/0.1% formic acid. Sample desalting was performed on a high throughput RapidFire-365 (Agilent) using a hydrophilic interaction liquid chromatography (HILIC) column. A quantitative time-of-flight (Q-ToF) mass spectrometer (Agilent) was used to detect analytes. Agilent MassHunter quantitative analysis for time of flight was used as the integration software for measuring area under the peak for both ^13C6,^15N1-L-isoleucine and D-Leucine-D10 internal standard.
IC50 values for transport inhibition in cells overexpressing SLC6A19 and TMEM27 were calculated using a 4-parameter logistic regression in Collaborative Drug Discovery (CDD). Reported IC50 values are geometric means of 4–6 independent experiments. For postmortem intestinal transport assays, single outliers of quadruplicate replicates were excluded from the calculation if a signal value’s distance to the mean exceeded 35% of the signal average. The IC50 values of individual experiments were calculated with a 3- or 4-parameter logistic regression using GraphPad Prism 9. The reported IC50 value represents the geometric mean of n = 5 experiments from 3 individual donors. Statistical comparison of urinary Phe excretion in Pah^enu2 mice treated with vehicle or JN-170 was conducted using 1-way analysis of variance (ANOVA) with Tukey’s post hoc comparison. Statistical analysis of baseline-adjusted plasma Phe in mice treated with vehicle or JN-170 was determined by 2-way ANOVA with Dunnett’s post hoc comparison. All statistical analyses were performed using GraphPad Prism 9. For clinical studies, group sizes were not determined based on statistical power calculations. Statistical significance of pharmacodynamic results was not assessed. Values are reported as mean (urinary Phe excretion, T1/2, Cl/F), geometric mean (Cmax/D, AUC0-inf/D), or median (Tmax).

fold less potent against human SLC6A19 than mouse SLC6A19: > 10 fold
isoleucine transport, Human (Fig 1f curve point) (0.000722 uM): 84.3 and 86.8
isoleucine transport, Human (Fig 1f curve point) (0.00219 uM): 72.6 and 89.2
isoleucine transport, Human (Fig 1f curve point) (0.00438 uM): 81.4 and 98.3
isoleucine transport, Human (Fig 1f curve point) (0.015313 uM): 84.4 and 88.8
isoleucine transport, Human (Fig 1f curve point) (0.048125 uM): 85.9 and 72.3
isoleucine transport, Human (Fig 1f curve point) (0.144375 uM): 64.5 and 70.3
isoleucine transport, Human (Fig 1f curve point) (0.4375 uM): 40 and 54.4
isoleucine transport, Human (Fig 1f curve point) (1.3125 uM): 41.1 and 23.8
isoleucine transport, Human (Fig 1f curve point) (3.9375 uM): 21 and 4.32
isoleucine transport, Human (Fig 1f curve point) (11.8125 uM): 2.26 and -9.71
IC50 (geometric mean n = 6, 95% CI 0.68–2.82 μM, read-out: IC50 against human SLC6A19, isoleucine transport assay): 1250 nM
SMILES: N#Cc1ccc(-c2noc([C@]3(C(F)(F)F)CCN(C(=O)NCCC4(N)CC4)C3)n2)cc1 [JN-170]

SMILES: NC(=O)N1CCC[C@@H](N(C(=O)NCc2ccc(OC(F)(F)F)cc2F)C2CC2)C1 [JNT-517]
isoleucine transport, Human (Fig 1c curve point) (0.000722 uM): 89.9 and 94.8
isoleucine transport, Human (Fig 1c curve point) (0.00219 uM): 91.3 and 95.5
isoleucine transport, Human (Fig 1c curve point) (0.00438 uM): 79.4 and 85.4
isoleucine transport, Human (Fig 1c curve point) (0.0153125 uM): 71.2 and 80.7
isoleucine transport, Human (Fig 1c curve point) (0.048125 uM): 33.9 and 45.4
isoleucine transport, Human (Fig 1c curve point) (0.144375 uM): 25.9 and 24
isoleucine transport, Human (Fig 1c curve point) (0.4375 uM): 12.2 and 4.05
isoleucine transport, Human (Fig 1c curve point) (1.3125 uM): -3.01 and -3.67
isoleucine transport, Human (Fig 1c curve point) (3.9375 uM): -3.2 and -3.39
isoleucine transport, Human (Fig 1c curve point) (11.8125 uM): -9.74 and -5.08
IC50 (geometric mean n = 4, 95% CI 38–57 nM, read-out: potency (IC50) against human SLC6A19, isoleucine transport assay): 47 nM
